Reference: patent US20110086759A1, “CHEMICAL COMPOUNDS” (SYNGENTA CROP PROTECTION, INC., priority 2007, published 2011)

Tests used:
Format in all cases: in vivo
Setaria faberi (SETFA) [1] = assay: Pre-emergence biological efficacy, glasshouse pot test; details: 312 h, pre-emergence, rate 1,000 g/ha, evaluated after 13 days (100=total damage to plant; 0=no damage), read-out: Percentage damage caused to weed species, SETFA
Method in brief: (§1)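 Standard soil, pots, sown then sprayed at day 1 with 1000 or 250 g/ha test compound. Glasshouse: 24/16 °C, 14 h photoperiod, 65% humidity, twice-daily watering. Evaluation day 13, 0–100 damage score.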

[2] = test system: Ipomea hederaceae (IPOHE); assay: as above; details: Ipomoea hederacea, 312 h; pre-emergence, rate 1,000 g/ha, evaluated after 13 days (100=total damage to plant; 0=no damage); read-out: Percentage damage caused to weed species, IPOHE
Method in brief: as §1

Solanum nigrum (SOLNI) [3] = assay: as above; details: 312 h, pre-emergence, rate 1,000 g/ha, evaluated after 13 days (100=total damage to plant; 0=no damage), read-out: Percentage damage caused to weed species, SOLNI
Method in brief: as §1

[4] = test system: Alopecurus myosuroides (ALOMY); assay: as above; details: 312 h, pre-emergence, rate 1,000 g/ha, evaluated after 13 days (100=total damage to plant; 0=no damage), read-out: Percentage damage caused to weed species, ALOMY
Method in brief: as §1

[5] = test system: Echinochloa crus-galli (ECHCG); assay: as above; details: 312 h, pre-emergence, rate 1,000 g/ha, evaluated after 13 days (100=total damage to plant; 0=no damage), read-out: Percentage damage caused to weed species, ECHCG
Method in brief: as §1

[6] = test system: Amaranthus retoflexus (AMARE); assay: as above; details: Amaranthus retroflexus, 312 h; pre-emergence, rate 1,000 g/ha, evaluated after 13 days (100=total damage to plant; 0=no damage); read-out: Percentage damage caused to weed species, AMARE
Method in brief: as §1

Setaria faberi (SETFA) [7] = assay: Post-emergence biological efficacy, glasshouse pot test; details: 312 h, Rate 1,000 g/ha, post-emergence spray, evaluated after 13 days (100=total damage to plant; 0=no damage to plant), read-out: Percentage damage caused to weed species, post-emergence, SETFA
Method in brief: (§2)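 Scored 13 days after spraying on a 0 (no damage) to 100 (total damage) scale. Treatment was a post-emergence spray at 1000 or 250 g/ha, from acetone/water 50:50 plus 0.5% Tween 20, onto 8-day-old plants in soil pots. Growth at 24/16° C, 14 h photoperiod, 65% humidity, watered twice daily.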

[8] = test system: Ipomea hederaceae (IPOHE); assay: as above; details: Ipomoea hederacea, 312 h; Rate 1,000 g/ha; post-emergence spray; evaluated after 13 days (100=total damage to plant; 0=no damage to plant); read-out: Percentage damage caused to weed species, post-emergence, IPOHE
Method in brief: as §2

Solanum nigrum (SOLNI) [9] = assay: as above; details: 312 h, Rate 1,000 g/ha, post-emergence spray, evaluated after 13 days (100=total damage to plant; 0=no damage to plant), read-out: Percentage damage caused to weed species, post-emergence, SOLNI
Method in brief: as §2

[10] = test system: Alopecurus myosuroides (ALOMY); assay: as above; details: 312 h, Rate 1,000 g/ha, post-emergence spray, evaluated after 13 days (100=total damage to plant; 0=no damage to plant), read-out: Percentage damage caused to weed species, post-emergence, ALOMY
Method in brief: as §2

[11] = test system: Echinochloa crus-galli (ECHCG); assay: as above; details: 312 h, Rate 1,000 g/ha, post-emergence spray, evaluated after 13 days (100=total damage to plant; 0=no damage to plant), read-out: Percentage damage caused to weed species, post-emergence, ECHCG
Method in brief: as §2

[12] = test system: Amaranthus retoflexus (AMARE); assay: as above; details: Amaranthus retroflexus, 312 h; Rate 1,000 g/ha; post-emergence spray; evaluated after 13 days (100=total damage to plant; 0=no damage to plant); read-out: Percentage damage caused to weed species, post-emergence, AMARE
Method in brief: as §2

COC(=O)c1nc(-c2ccc(Cl)c(F)c2)nc(NCc2ccco2)c1Cl [Compound 222-48, 5-Chloro-2-(4-chloro-3-fluorophenyl)-4-(furan-2-ylmethyl-amino)-6-methoxycarbonyl-pyrimidine]
pest or weed control at 1000 g/ha (Setaria faberi (SETFA) [1]): 20%
pest or weed control at 1000 g/ha [2]: 70%
pest or weed control at 1000 g/ha (Solanum nigrum (SOLNI) [3]): 100%
pest or weed control at 1000 g/ha [4]: 30%
pest or weed control at 1000 g/ha [5]: 50%
pest or weed control at 1000 g/ha [6]: 100%
pest or weed control at 1000 g/ha (Setaria faberi (SETFA) [7]): 40%
pest or weed control at 1000 g/ha [8]: 80%
pest or weed control at 1000 g/ha (Solanum nigrum (SOLNI) [9]): 90%
pest or weed control at 1000 g/ha [10]: 30%
pest or weed control at 1000 g/ha [11]: 40%
pest or weed control at 1000 g/ha [12]: 100%

COC(=O)c1nc(-c2ccc(Cl)c(F)c2Cl)nc(NCc2ccco2)c1Cl [Compound 224-48, 5-Chloro-2-(2,4-dichloro-3-fluorophenyl)-4-(furan-2-ylmethyl-amino)-6-methoxy-carbonylpyrimidine]
pest or weed control at 1000 g/ha (Setaria faberi (SETFA) [1]): 50%
pest or weed control at 1000 g/ha [2]: 70%
pest or weed control at 1000 g/ha (Solanum nigrum (SOLNI) [3]): 90%
pest or weed control at 1000 g/ha [4]: 60%
pest or weed control at 1000 g/ha [5]: 0%
pest or weed control at 1000 g/ha [6]: 100%
pest or weed control at 1000 g/ha (Setaria faberi (SETFA) [7]): 80%
pest or weed control at 1000 g/ha [8]: 70%
pest or weed control at 1000 g/ha (Solanum nigrum (SOLNI) [9]): 90%
pest or weed control at 1000 g/ha [10]: 60%
pest or weed control at 1000 g/ha [11]: 40%
pest or weed control at 1000 g/ha [12]: 100%

COC(=O)c1nc(-c2ccc(Cl)c(F)c2F)nc(NCc2ccco2)c1Cl [Compound 225-48, 5-Chloro-2-(4-chloro-2,3-difluorophenyl)-4-(furan-2-ylmethyl-amino)-6-methoxy-carbonylpyrimidine]
pest or weed control at 1000 g/ha (Setaria faberi (SETFA) [1]): 80%
pest or weed control at 1000 g/ha [2]: 70%
pest or weed control at 1000 g/ha (Solanum nigrum (SOLNI) [3]): 90%
pest or weed control at 1000 g/ha [4]: 60%
pest or weed control at 1000 g/ha [5]: 30%
pest or weed control at 1000 g/ha [6]: 100%
pest or weed control at 1000 g/ha (Setaria faberi (SETFA) [7]): 80%
pest or weed control at 1000 g/ha [8]: 90%
pest or weed control at 1000 g/ha (Solanum nigrum (SOLNI) [9]): 90%
pest or weed control at 1000 g/ha [10]: 60%
pest or weed control at 1000 g/ha [11]: 60%
pest or weed control at 1000 g/ha [12]: 100%

COC(=O)c1nc(-c2ccc(Cl)c(Cl)c2F)nc(NCc2ccco2)c1Cl [Compound 226-48, 5-Chloro-2-(3,4-dichloro-2-fluorophenyl)-4-(furan-2-ylmethyl-amino)-6-methoxy-carbonylpyrimidine]
pest or weed control at 1000 g/ha (Setaria faberi (SETFA) [1]): 40%
pest or weed control at 1000 g/ha [2]: 30%
pest or weed control at 1000 g/ha (Solanum nigrum (SOLNI) [3]): 100%
pest or weed control at 1000 g/ha [4]: 50%
pest or weed control at 1000 g/ha [5]: 30%
pest or weed control at 1000 g/ha [6]: 100%
pest or weed control at 1000 g/ha (Setaria faberi (SETFA) [7]): 80%
pest or weed control at 1000 g/ha [8]: 60%
pest or weed control at 1000 g/ha (Solanum nigrum (SOLNI) [9]): 90%
pest or weed control at 1000 g/ha [10]: 50%
pest or weed control at 1000 g/ha [11]: 60%
pest or weed control at 1000 g/ha [12]: 100%

COC(=O)c1nc(-c2cc(Cl)c(Cl)cc2Cl)nc(NCc2ccco2)c1Cl [Compound 228-48, 5-Chloro-4-(furan-2-ylmethylamino)-6-methoxycarbonyl-2-(2,4,5-trichloro-phenyl)pyrimidine]
pest or weed control at 1000 g/ha (Setaria faberi (SETFA) [1]): 0%
pest or weed control at 1000 g/ha [2]: 0%
pest or weed control at 1000 g/ha (Solanum nigrum (SOLNI) [3]): 0%
pest or weed control at 1000 g/ha [4]: 0%
pest or weed control at 1000 g/ha [5]: 0%
pest or weed control at 1000 g/ha [6]: 30%
pest or weed control at 1000 g/ha (Setaria faberi (SETFA) [7]): 20%
pest or weed control at 1000 g/ha [8]: 10%
pest or weed control at 1000 g/ha (Solanum nigrum (SOLNI) [9]): 30%
pest or weed control at 1000 g/ha [10]: 20%
pest or weed control at 1000 g/ha [11]: 0%
pest or weed control at 1000 g/ha [12]: 70%

COC(=O)c1nc(-c2ccc(Cl)c(OC)c2)nc(NCc2ccco2)c1Cl [Compound 229-48, 5-Chloro-2-(4-chloro-3-methoxyphenyl)-4-(furan-2-ylmethyl-amino)-6-methoxy-carbonylpyrimidine]
pest or weed control at 1000 g/ha (Setaria faberi (SETFA) [1]): 30%
pest or weed control at 1000 g/ha [2]: 0%
pest or weed control at 1000 g/ha (Solanum nigrum (SOLNI) [3]): 90%
pest or weed control at 1000 g/ha [4]: 10%
pest or weed control at 1000 g/ha [5]: 0%
pest or weed control at 1000 g/ha [6]: 100%
pest or weed control at 1000 g/ha (Setaria faberi (SETFA) [7]): 60%
pest or weed control at 1000 g/ha [8]: 30%
pest or weed control at 1000 g/ha (Solanum nigrum (SOLNI) [9]): 80%
pest or weed control at 1000 g/ha [10]: 10%
pest or weed control at 1000 g/ha [11]: 30%
pest or weed control at 1000 g/ha [12]: 100%

COC(=O)c1nc(-c2ccc(Cl)c(C(F)(F)F)c2F)nc(NCc2ccco2)c1Cl [Compound 230-48, 5-Chloro-2-(4-chloro-2-fluoro-3-trifluoro-methylphenyl)-4-(furan-2-ylmethyl-amino)-6-methoxy-carbonylpyrimidine]
pest or weed control at 1000 g/ha (Setaria faberi (SETFA) [1]): 50%
pest or weed control at 1000 g/ha [2]: 50%
pest or weed control at 1000 g/ha (Solanum nigrum (SOLNI) [3]): 70%
pest or weed control at 1000 g/ha [4]: 30%
pest or weed control at 1000 g/ha [5]: 20%
pest or weed control at 1000 g/ha [6]: 70%
pest or weed control at 1000 g/ha (Setaria faberi (SETFA) [7]): 70%
pest or weed control at 1000 g/ha [8]: 60%
pest or weed control at 1000 g/ha (Solanum nigrum (SOLNI) [9]): 80%
pest or weed control at 1000 g/ha [10]: 30%
pest or weed control at 1000 g/ha [11]: 90%
pest or weed control at 1000 g/ha [12]: 100%

COC(=O)c1nc(-c2ccc(Cl)c(Cl)c2Cl)nc(NCc2ccco2)c1Cl [Compound 231-48, 5-Chloro-4-(furan-2-ylmethylamino)-6-methoxycarbonyl-2-(2,3,4-trichloro-phenyl)pyrimidine]
pest or weed control at 1000 g/ha (Setaria faberi (SETFA) [1]): 20%
pest or weed control at 1000 g/ha [2]: 10%
pest or weed control at 1000 g/ha (Solanum nigrum (SOLNI) [3]): 40%
pest or weed control at 1000 g/ha [4]: 40%
pest or weed control at 1000 g/ha [5]: 30%
pest or weed control at 1000 g/ha [6]: 100%
pest or weed control at 1000 g/ha (Setaria faberi (SETFA) [7]): 70%
pest or weed control at 1000 g/ha [8]: 70%
pest or weed control at 1000 g/ha (Solanum nigrum (SOLNI) [9]): 80%
pest or weed control at 1000 g/ha [10]: 50%
pest or weed control at 1000 g/ha [11]: 30%
pest or weed control at 1000 g/ha [12]: 100%

COC(=O)c1nc(-c2cc(F)c(Cl)c(F)c2)nc(NCc2ccco2)c1Cl [Compound 232-48, 5-Chloro-2-(4-chloro-3,5-difluorophenyl)-4-(furan-2-ylmethyl-amino)-6-methoxy-carbonylpyrimidine]
pest or weed control at 1000 g/ha (Setaria faberi (SETFA) [1]): 0%
pest or weed control at 1000 g/ha [2]: 0%
pest or weed control at 1000 g/ha (Solanum nigrum (SOLNI) [3]): 0%
pest or weed control at 1000 g/ha [4]: 0%
pest or weed control at 1000 g/ha [5]: 0%
pest or weed control at 1000 g/ha [6]: 0%
pest or weed control at 1000 g/ha (Setaria faberi (SETFA) [7]): 0%
pest or weed control at 1000 g/ha [8]: 10%
pest or weed control at 1000 g/ha (Solanum nigrum (SOLNI) [9]): 60%
pest or weed control at 1000 g/ha [10]: 0%
pest or weed control at 1000 g/ha [11]: 0%
pest or weed control at 1000 g/ha [12]: 20%

COC(=O)c1nc(-c2ccc(C(F)(F)F)cc2)nc(NCc2ccco2)c1Cl [Compound 233-48, 5-Chloro-4-(furan-2-ylmethylamino)-6-methoxycarbonyl-2-(4-trifluoromethyl-phenyl)pyrimidine]
pest or weed control at 1000 g/ha (Setaria faberi (SETFA) [1]): 20%
pest or weed control at 1000 g/ha [2]: 60%
pest or weed control at 1000 g/ha (Solanum nigrum (SOLNI) [3]): 100%
pest or weed control at 1000 g/ha [4]: 30%
pest or weed control at 1000 g/ha [5]: 20%
pest or weed control at 1000 g/ha [6]: 100%
pest or weed control at 1000 g/ha (Setaria faberi (SETFA) [7]): 10%
pest or weed control at 1000 g/ha [8]: 70%
pest or weed control at 1000 g/ha (Solanum nigrum (SOLNI) [9]): 80%
pest or weed control at 1000 g/ha [10]: 20%
pest or weed control at 1000 g/ha [11]: 30%
pest or weed control at 1000 g/ha [12]: 80%
